Assay type in all cases: cell-based
One test deals with T1, recombinant CYP-21 (Homo sapiens, UniProt P08686).
T1 construct: expressed in transfected cells
T1 sequence (P08686 1-495): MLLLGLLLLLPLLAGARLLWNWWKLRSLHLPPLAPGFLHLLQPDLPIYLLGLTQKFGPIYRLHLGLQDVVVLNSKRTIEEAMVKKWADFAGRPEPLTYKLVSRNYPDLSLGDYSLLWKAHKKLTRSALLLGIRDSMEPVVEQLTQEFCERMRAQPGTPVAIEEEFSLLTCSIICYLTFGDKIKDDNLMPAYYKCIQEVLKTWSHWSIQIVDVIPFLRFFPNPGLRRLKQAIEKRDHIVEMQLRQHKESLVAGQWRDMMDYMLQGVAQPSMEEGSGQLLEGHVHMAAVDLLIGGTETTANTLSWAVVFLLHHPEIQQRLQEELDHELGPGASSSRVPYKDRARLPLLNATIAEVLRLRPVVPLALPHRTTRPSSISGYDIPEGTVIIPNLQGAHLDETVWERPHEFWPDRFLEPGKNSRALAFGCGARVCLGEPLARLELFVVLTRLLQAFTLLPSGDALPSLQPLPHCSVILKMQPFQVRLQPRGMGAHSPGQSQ
Nature of the test: Cyp21 assay: 11-deoxycortisol formation from 17-OH Progesterone in AD293 cells, LC/MS. Conditions: AD293 cells stably over-expressing recombinant CYP-21; eight concentrations 10 μM to 4.5 nM. How it is done:
Cyp21 assay protocol: AD293 cells that stably over-express recombinant CYP-21 were seeded in 96 well plates coated with poly D-lysine (10,000 cell per well) and incubated at 37° C. for 24 hours in Dulbecco's Modified Eagle Medium (DMEM) with Fetal Bovine Serum (FBS) that is stripped of hormones by charcoal treatment. The media is then removed, the cells are washed once with Phosphate buffer saline solution, and 50 μL Dulbecco's Modified Eagle Medium (DMEM) with Fetal Bovine Serum (FBS) that is stripped of hormones by charcoal treatment is added. Compounds of the disclosure are then added to the wells in eight concentration spanning 10 μM to 4.5 nM, and the plates are incubated for an additional 60 minutes at 37° C. 17-OH Progesterone is then added ([…]) and the plates are incubated for an additional 45 minutes at 37° C. After incubation, 50 uL of the supernatant (medium) is transferred into a fresh plate and 150 uL of an acetonitrile solution containing 200 ng/ml of Telmisartan is added. The sample is mixed and then placed in a centrifuge at 2000 rpm for 5 minutes.

In another test the target is T2, recombinant CYP-11 (Homo sapiens, UniProt P15538).
T2 construct: expressed in transfected cells
T2 sequence (P15538 25-503): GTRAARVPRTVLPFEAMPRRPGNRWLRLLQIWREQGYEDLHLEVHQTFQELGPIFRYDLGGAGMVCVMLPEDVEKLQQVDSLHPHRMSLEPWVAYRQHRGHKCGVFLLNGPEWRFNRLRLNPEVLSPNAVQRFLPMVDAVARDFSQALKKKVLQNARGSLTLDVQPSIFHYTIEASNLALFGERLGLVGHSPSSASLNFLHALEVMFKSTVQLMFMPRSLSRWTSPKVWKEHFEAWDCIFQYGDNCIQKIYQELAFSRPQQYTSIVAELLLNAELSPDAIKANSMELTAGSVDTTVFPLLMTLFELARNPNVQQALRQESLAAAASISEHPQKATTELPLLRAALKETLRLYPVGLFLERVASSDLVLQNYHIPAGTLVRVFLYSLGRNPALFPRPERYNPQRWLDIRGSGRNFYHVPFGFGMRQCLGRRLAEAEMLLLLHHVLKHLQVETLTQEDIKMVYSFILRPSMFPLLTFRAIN
The test can be described thus: Cyp11 assay: cortisol formation from 11-deoxycortisol in AD293 cells, LC/MS. Conditions: AD293 cells stably over-expressing recombinant CYP-11; eight concentrations 10 μM to 4.5 nM. How it is done: Cyp11 assay protocol: AD293 cells that stably over-express recombinant CYP-11 were seeded in 96 well plates coated with poly D-lysine (15,000 cell per well) and incubated at 37° C. for 24 hours in Dulbecco's Modified Eagle Medium (DMEM) with Fetal Bovine Serum (FBS) that is stripped of hormones by charcoal treatment. The media is then removed, the cells are washed once with Phosphate buffer saline solution, and 50 μL Dulbecco's Modified Eagle Medium (DMEM) with Fetal Bovine Serum (FBS) that is stripped of hormones by charcoal treatment is added. Compounds of the disclosure are then added to the wells in eight concentration spanning 10 μM to 4.5 nM, and the plates are incubated for an additional 60 minutes at 37° C. 11-deoxycortisol is then added ([…]) and the plates are incubated for an additional 12 hours at 37° C. After incubation, 50 uL of the supernatant (medium) is transferred into a fresh plate and 150 uL of an acetonitrile solution containing 200 ng/ml of Telmisartan is added. The sample is mixed and then placed in a centrifuge at 2000 rpm for 5 minutes. 100 uL of the supernatant is transferred into a fresh 96 well deep well plate, 100 uL of 1:1 methanol: water was added, the solution was mixed and then analyzed by LC/MS for the presence of cortisol using an Agilent 1200 RRLC/ABSCIEX API4000 LC-MS or Shimadzu Prominance/ABSCIEX API4000 LC-MS to determine IC50s of the compounds of the disclosure.

The target of another test is T3, recombinant CYP-17 (Homo sapiens, UniProt P05093).
T3 construct: expressed in transfected cells
T3 sequence (P05093 1-508): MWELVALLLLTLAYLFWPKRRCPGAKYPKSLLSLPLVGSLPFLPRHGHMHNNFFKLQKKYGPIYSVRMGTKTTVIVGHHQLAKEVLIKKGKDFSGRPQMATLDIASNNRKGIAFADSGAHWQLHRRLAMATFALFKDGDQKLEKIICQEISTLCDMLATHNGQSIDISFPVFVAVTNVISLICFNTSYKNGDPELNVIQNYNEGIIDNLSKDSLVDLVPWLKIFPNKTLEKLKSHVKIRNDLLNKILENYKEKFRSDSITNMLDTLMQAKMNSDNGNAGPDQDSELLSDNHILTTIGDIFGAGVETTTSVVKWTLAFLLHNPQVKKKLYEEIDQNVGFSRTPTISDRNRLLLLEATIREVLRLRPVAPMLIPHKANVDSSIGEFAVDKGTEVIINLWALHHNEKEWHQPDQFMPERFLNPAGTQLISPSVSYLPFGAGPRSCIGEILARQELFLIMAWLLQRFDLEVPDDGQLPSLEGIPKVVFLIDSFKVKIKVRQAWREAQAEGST
The test can be described thus: Cyp17 assay: 3H-acetic acid release from [21-3H] 17α-hydroxyl-Pregnenolone in AD293 cells. Conditions: AD293 cells stably over-expressing recombinant CYP-17; eight concentrations 10 μM to 4.5 nM. How it is done: Cyp17 assay protocol: AD293 cells that stably over-express recombinant CYP-17 were seeded in 96 well plates coated with poly D-lysine (15,000 cell per well) and incubated at 37° C. for 24 hours in Dulbecco's Modified Eagle Medium (DMEM) with Fetal Bovine Serum (FBS) that is stripped of hormones by charcoal treatment. The media is then removed, the cells are washed once with Phosphate buffer saline solution, and 50 μL Dulbecco's Modified Eagle Medium (DMEM) with Fetal Bovine Serum (FBS) that is stripped of hormones by charcoal treatment is added. Compounds of the disclosure are then added to the wells in eight concentration spanning 10 μM to 4.5 nM, and the plates are incubated for an additional 60 minutes at 37° C. [21-^3H] 17α-hydroxyl-Pregnenolone is then added (50 nCi per well, 31.25 nM) and the plates are incubated for an additional 4 hours at 37° C. The media is then collected, 200 μL of chloroform is added, and the mixture is shaken for 1 hour. The aqueous layer is then separated and analyzed for the presence of ^3H-acetic acid using a Perkin Elmer Topcount NXT to determine IC50s of the compounds of the disclosure.

Molecules are shown by their SMILES.

Take `CCN1CCN(C(c2ccncc2)c2ccc(-c3ccc(F)cc3OC)cc2)CC1` (stereo not drawn) [Entry 28, 1-ethyl-4-((4′-fluoro-2′-methoxy-[1,1′-biphenyl]-4-yl)(pyridin-4-yl)methyl)piperazine]: the IC50 at recombinant CYP-21 is at least 10 µM; at recombinant CYP-11 it was at least 10 µM; at recombinant CYP-17 it was 0.117 µM.
Turning to `COc1cc(F)ccc1-c1ccc(C(c2ccncc2)N2CCC(O)CC2)cc1` (stereo not drawn) [Entry 29, 1-((4′-fluoro-2′-methoxy-[1,1′-biphenyl]-4-yl)(pyridin-4-yl)methyl)piperidin-4-ol], the IC50 on recombinant CYP-21 is 4 µM; at recombinant CYP-11, at least 10 µM; on recombinant CYP-17, 0.012 µM.
On to `COc1cc(F)ccc1-c1ccc(C(c2ccncc2)N2CCN(C3CCCC3)CC2)cc1` (stereo not drawn) [Entry 21, 1-cyclopentyl-4-((4′-fluoro-2′-methoxy-[1,1′-biphenyl]-4-yl)(pyridin-4-yl)methyl)piperazine], for which the IC50 was at least 10 µM on recombinant CYP-21, at least 10 µM on recombinant CYP-11 and 0.9 µM at recombinant CYP-17.

Values taken from patent publication US20150210641A1, “NOVEL CYTOCHROME P450 INHIBITORS AND THEIR METHOD OF USE” (CORTENDO AB (PUBL), priority 2014, published 2015).
